Experimental data taken from the supplement of paper PMC10307832.

Compound: OCc1c[nH]c2ccccc12 [Indole-3-carbinol] + CC(=O)c1c(C)c2cnc(Nc3ccc(N4CCNCC4)cn3)nc2n(C2CCCC2)c1=O [Palbociclib] (partner 0.5 µM)
Experiment: relative viability (nuclei count vs DMSO), 5 days (fraction); higher = more cells survive
Procedure, shortened: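 Five library-drug doses in √10 steps were combined with a fixed anchor-drug dose, or a single drug was given alone, by pin tool to lung cancer cell lines in 1536-well plates the day after seeding. Nuclei were stained and counted after 5 days. Relative viability is the nuclei count in treated wells over that in vehicle wells, taken as the median of duplicate plates.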

Cell Line	relative viability (first compound 0.253 µM)	relative viability (first compound 0.8 µM)	relative viability (first compound 2.53 µM)	relative viability (first compound 8 µM)
EMC-BAC-2	0.507	0.519	0.507	0.489
NCI-H661	0.426	0.412	0.447	0.444
LU99A	0.397	0.423	0.385	0.381
LK-2	0.674	0.489	1.05	0.703
NCI-H3122	0.188	0.196	0.176	0.183
NCI-H2347	0.426	0.471	0.419	0.407
HCC-827	0.495	0.292	0.479	0.471
NCI-H1666	0.667	0.694	0.667	0.626
NCI-H358	0.145	0.125	0.136	0.12
201T	0.357	0.396	0.356	0.34
PC-3 [JPC-3]	0.574	0.568	0.557	0.507
NCI-H2405	0.513	0.554	0.553	0.491
LXF-289	0.58	0.611	0.609	0.56
EKVX	0.384	0.36	0.386	0.452
A-427	0.52	0.568	0.547	0.491
ChaGo-K-1	0.942	0.939	0.994	0.968
NCI-H2342	0.516	0.516	0.498	0.535
SK-MES-1	0.292	0.299	0.318	0.313
LCLC-97TM1	0.237	0.266	0.225	0.236
NCI-H2170	0.384	0.375	0.41	0.42
NCI-H1993	0.713	0.635	0.664	0.521
NCI-H460	0.149	0.17	0.229	0.19
NCI-H1975	0.699	0.704	0.554	0.644
RERF-LC-KJ	1.14	0.968	0.941	1.15

Cell Line	relative viability (first compound 0.253 µM)	relative viability (first compound 0.8 µM)	relative viability (first compound 2.53 µM)	relative viability (first compound 8 µM)
NCI-H322M	0.456	0.481	0.506	0.476
NCI-H1651	0.53	0.521	0.524	0.495
HARA	0.303	0.249	0.281	0.232
H3255	0.302	0.32	0.347	0.307
NCI-H441	0.202	0.267	0.249	0.185
CAL-12T	0.443	0.517	0.573	0.398
ABC-1	0.681	0.807	0.794	0.735
NCI-H1792	0.74	0.634	0.675	0.697
NCI-H1437	0.296	0.346	0.296	0.305
HOP-62	0.444	0.457	0.451	0.426
EPLC-272H	0.325	0.376	0.318	0.334
COR-L 105	0.439	0.408	0.41	0.397
HCC-366	0.419	0.384	0.455	0.356
HCC-44	0.954	1.03	0.902	0.882
NCI-H2009	0.213	0.188	0.169	0.226
NCI-H23	0.435	0.463	0.546	0.419
NCI-H727	0.634	0.669	0.699	0.648
NCI-H1355	0.401	0.379	0.43	0.392
NCI-H1944	0.338	0.279	0.304	0.311
NCI-H2023	0.396	0.469	0.334	0.375
NCI-H1395	0.625	0.589	0.734	0.531
NCI-H2087	0.193	0.278	0.27	0.262
NCI-H838	0.191	0.203	0.231	0.223
NCI-H1793	0.346	0.281	0.298	0.315

Cell Line	relative viability (first compound 0.253 µM)	relative viability (first compound 0.8 µM)	relative viability (first compound 2.53 µM)	relative viability (first compound 8 µM)
LC-2-ad	0.533	0.534	0.513	0.455
HCC-78	0.486	0.498	0.471	0.462
NCI-H522	0.87	1.02	1.31	1.15
LOU-NH91	0.492	0.547	0.535	0.497
NCI-H1734	0.352	0.376	0.331	0.31
NCI-H520	0.225	0.183	0.21	0.217
UMC-11	0.338	0.34	0.319	0.32
NCI-H1755	0.489	0.444	0.487	0.423
SK-LU-1	0.404	0.36	0.383	0.372
NCI-H647	0.392	0.318	0.292	0.433
SW 1573	0.377	0.41	0.449	0.37
HCC-15	0.804	0.773	0.733	0.724
NCI-H2126	0.299	0.366	0.362	0.34
NCI-H2085	0.469	0.492	0.451	0.439
SW 900	0.557	0.501	0.589	0.527
BEN	0.495	0.445	0.512	0.485
NCI-H650	0.311	0.338	0.352	0.307
LCLC-103H	0.492	0.48	0.451	0.405
PC-14	0.538	0.509	0.541	0.462
NCI-H2228	0.75	0.771	0.645	0.78
COR-L23	0.323	0.245	0.308	0.237
NCI-H1915	0.5	0.521	0.532	0.486
